Source: US12545685B2 (Daiichi Sankyo Company, Limited, priority 2011, dated 2026)

How the values were obtained:
[1] = tested on: human lung cancer-derived cell line NCI-H460 having wild-type p53; experiment: Cell growth inhibition assay (MTT); type: cell-based; conditions: 72 h, NCI-H460 cells, 3 days culture, values given as ranges, read-out: 50% growth inhibition concentration (GI50 value)
How it was run: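 NCI-H460 cells (wild-type p53) seeded at 500 cells/well in RPMI1640 with 10% FBS, then treated the next day and grown 3 days at 37 °C. MTT read-out at OD 540 nm (660 nm reference), taken at dosing and at day 3. GI50 derived from T/C (%) dose-response curves.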

[2] = target: T1, Mdm2/p53 binding (GST-Mdm2 / His-p53) (Homo sapiens, UniProt Q00987, L33E); experiment: Mdm2/p53 binding assay (HTRF, His-p53 and GST-Mdm2); conditions: His-p53 (aa 1-132) and GST-Mdm2 (aa 25-108, L33E) 6.25 nM each; 25°C, 1 hour; values given as ranges
T1 construct: Mdm2 partial protein having Mdm2 amino acids at positions 25 to 108
T1 sequence (Q00987 25-108 L33E): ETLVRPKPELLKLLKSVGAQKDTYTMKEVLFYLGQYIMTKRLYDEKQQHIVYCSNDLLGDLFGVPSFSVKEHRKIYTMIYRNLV
How it was run: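 Binding was detected by HTRF (ex 320 nm, em 620/665 nm) after 1 h at 25 °C, using Eu-cryptate anti-GST and XL665 anti-His antibodies. The protein pair was GST-Mdm2 (residues 25–108, L33E) with His-p53 (residues 1–132), each 6.25 nM in the protein dilution. T/C used no-compound control and no-p53 background, and IC50 came from sigmoid fitting.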

Compound | GI50 [1] | IC50 [2]
CC1(C)CCC2(CC1)N[C@@H](C(=O)N[C@@H]1CC[C@@H](Cc3nnco3)OC1)[C@H](c1ccnc(Cl)c1F)[C@]21C(=O)Nc2cc(Cl)ccc21 [Example 161, (3′R, 4′S,5′R)-6″-chloro-4′-(2-chloro-3-fluoropyridin-4-yl)-4,4-dimethyl-N-[(3R,6S)-6-(1,3,4-oxadiazol-2-ylmethyl)tetrahydro-2H-pyran-3-yl]-2″-oxo-1″,2″-dihydrodispiro[cyclohexane-1,2′-pyrrolidine-3′,3″-indole]-5′-carboxamide] | 100 to 500 nM | 50 to 100 nM
CC1(C)CCC2(CC1)N[C@@H](C(=O)NC1CC3(C1)CC(CO)(CO)C3)[C@H](c1ccnc(Cl)c1F)[C@]21C(=O)Nc2cc(Cl)ccc21 [Example 162, (3′R, 4′S,5′R)—N-[6,6-bis(hydroxymethyl)spiro[3.3]hepta-2-yl]-6″-chloro-4′-(2-chloro-3-fluoropyridin-4-yl)-4,4-dimethyl-2′-oxo-1″,2″-dihydrodispiro[cyclohexane-1,2′-pyrrolidine-3′,3″-indole]-5′-carboxamide] | 100 to 500 nM | 50 to 100 nM
O=C(N[C@@H]1CC[C@@H](CO)OC1)[C@@H]1NC2(CC(CF)(CF)C2)[C@@]2(C(=O)Nc3cc(Cl)ccc32)[C@H]1c1cc(F)cc(Cl)c1 [Example 164, (3′R, 4′R, 5′R)-6″-chloro-4′-(3-chloro-5-fluorophenyl)-3,3-bis(fluoromethyl)-N-[(3R,6S)-6-(hydroxymethyl)tetrahydro-2H-pyran-3-yl]-2″-oxo-1″,2″-dihydrodispiro[cyclobutane-1,2′-pyrrolidine-3′,3″-indole]-5′-carboxamide] | 1000 to 5000 nM | 100 to 500 nM
CC1(C)CCC2(CC1)N[C@@H](C(=O)N[C@@H]1CC[C@@H](C(=O)O)OC1)[C@H](c1ccnc(Cl)c1F)[C@]21C(=O)Nc2cc(Cl)ccc21 [Example 174, (2S,5R)-5-({[(3′B, 4′S,5′R)-6″-chloro-4′-(2-chloro-3-fluoropyridin-4-yl)-4,4-dimethyl-2″-oxo-1′″, 2″-dihydrodispiro[cyclohexane-1,2-pyrrolidine-3′,3″-indole]-5′-yl]carbonyl}amino)tetrahydro-2H-pyran-2-carboxylic acid] | > 5000 nM | 1 to 50 nM
CC1(C)CCC2(CC1)N[C@@H](C(=O)N[C@@H]1CC[C@@H](C(N)=O)OC1)[C@H](c1cccc(Cl)c1F)[C@]21C(=O)Nc2nc(Cl)ccc21 [Example 179, (3′R, 4′S,5′R)—N-[(3R,6S)-6-carbamoyltetrahydro-2H-pyran-3-yl]-6″-chloro-4′-(3-chloro-2-fluorophenyl)-4,4-dimethyl-2″-oxo-1″,2″-dihydrodispiro[cyclohexane-1,2′-pyrrolidine-3′,3″-pyrrolo[2,3-b]pyridine]-5′-carboxamide] | 1000 to 5000 nM | 1 to 50 nM
C[C@@H](O)[C@@H]1CC[C@@H](NC(=O)[C@@H]2NC3(CCC(C)(C)CC3)[C@@]3(C(=O)Nc4nc(Cl)ccc43)[C@H]2c2cccc(Cl)c2F)CO1 [Example 180, (3′R, 4′S,5′R)-6″-chloro-4′-(3-chloro-2-fluorophenyl)-N-{(3R,6S)-6-[(1R)-1-hydroxyethyl]tetrahydro-2H-pyran-3-yl}-4,4-dimethyl-2″-oxo-1″,2″-dihydrodispiro[cyclohexane-1,2′-pyrrolidine-3′,3″-pyrrolo[2,3-b]pyridine]-5′-carboxamide] | 1000 to 5000 nM | 1 to 50 nM
C[C@@H](O)[C@@H]1CC[C@@H](NC(=O)[C@@H]2NC3(CCC(C)(C)CC3)[C@@]3(C(=O)Nc4cc(Cl)ccc43)[C@H]2c2cccc(Cl)c2F)CO1 [Example 182, (3′R, 4′S,5′R)-6″-chloro-4′-(3-chloro-2-fluorophenyl)-N-{(3S,6S)-6-[(1R)-1-hydroxyethyl]tetrahydro-2H-pyran-3-yl}-4,4-dimethyl-2′-oxo-1″,2″-dihydrodispiro[cyclohexane-1,2′-pyrrolidine-3′,3″-indole]-5-carboxamide] | < 100 nM | 1 to 50 nM
